Results from article PMC11758266, “Lipid-Modulated, Graduated Inhibition of N-Glycosylation Pathway Priming Suggests Wide Tolerance of ER Proteostasis to Stress” (ACS Central Science, 2024).

System: ATF4
Assay: HEK-ATF4 high-content immunofluorescence imaging assay (ER stress)
Type: cell-based, human
Conditions: for ER stress response in the phenotypic assay (in words): HEK293 cells, 6 h, nuclear ATF4 as marker
Description: Here, the nuclear localization of the transcription factor ATF4 (which leads to subsequent expression of CHOP and cell death) was used as a phenotypic marker of ER stress (Figure 3A). Use of multi(384)-well plate format allowed wild-type HEK cells to be treated with analogues over a titrating concentration range of 0.5 nM to […] for 6 h in a quantitative manner (Figure 3C). After fixation with paraformaldehyde, high-content cellular fluorescence microscopy imaging was used to both determine the site and quantify the location of ATF4[32] (Figure 3B,C). Thus, immunofluorescent staining of the cells exploited a primary rabbit anti-ATF4 (D4B8) antibody followed by a solution containing a secondary Alexa Fluor 488-labeled goat anti-rabbit IgG along with Hoechst 33342 nuclei stain. In this way, confocal fluorescence microscopy at excitation wavelengths of 405 and 488 nm produced, as a direct primary readout, the intensity of ATF4 located in the nucleus as well as the ratio of ATF4 located between the nucleus (colocalized with Hoechst) and cytoplasm (see Figure 3B,C for representative images and the Supporting Information for channel-by-channel images). Concurrent readout of the number of stained nuclei (Hoechst nuclei stain) in live cells was also used as an internal cytotoxicity measure. This high-content method allowed detailed quantitative cellular dose responses to be determined with precision (Figure 3D). […] Consistent with ATF4 as a driver of apoptosis, this also drove cell death at higher concentrations (EC50 ∼ 10 μM) similar to those determined previously.[33] This therefore identified a clear dose–response window of more than 2 orders of magnitude over such key downstream events.
Figure 3 High-content phenotypic screen for putative ER stress inducers. (A) Schematic of the screening process. 12,000 HEK293 WT cells per well were plated into a 384-well plate and incubated at 37 °C for 24 h. Compounds were serially diluted and added to the plate and incubated for 6 h at 37 °C, at which point the cells were fixed with 4% PFA in PBS. The plates were then submitted to indirect ATF4 immunofluorescence, in which the plate was incubated with a primary anti-ATF4 (D4B8) antibody, followed by Alexa Fluor 488-labeled goat anti-rabbit secondary antibody and Hoechst 33342 dye. Plates were imaged using an OPERA-Phenix high-content imaging platform with fluorescence excitation at 405 and 488 nm. The images were analyzed, and the nuclear intensity of ATF4 for each cell was quantitatively determined (gray filled circles, left-hand axis in (D)) as well as the count of live cells (black squares, right-hand axis in (D)). Created in BioRender. https://BioRender.com/z32w873 (B) Representative section of imaging (red = nuclei, green = ATF4) for a given cellular population at a single dose (here exposed to tunicamycin at 41.2 nM). (C) Representative series panels of dose–response images after exposure to three different Tun-XE,YG analogues and DMSO control. (D) Corresponding resulting quantification of the high-throughput microscopy assay displaying the live cell count (black, right axis) and the nuclear intensity of ATF4 (gray, left axis) of tunicamycin and two lipid altered analogues, one with a large lipid at the gating position (Tun-9E,9G) and other with a short lipid at this position (Tun-8E,2G). See the Supporting Information for full details.
Supplementary Phenotypic Screening Methods
Tunicamycin analogues were tested in the HEK-ATF4 High Content Imaging assay to assess their ER stress generating ability. Wild-type HEK293 cells were plated in 384-well imaging assay plates at a density of 12,000 cells per well in growth medium (containing DMEM/F12, 10% FBS, 2 mM L-Glutamine, 100 U/mL Penicillin - 100µg/mL Streptomycin) and incubated at 37°C, 5% CO2. 24-hrs later, the medium was changed to 50 µl assay medium per well (DMEM/F12, 0.3% FBS, 2mM L-Glutamine, 100 U/mL Penicillin – 100 µg/mL […]
Streptomycin). […]

Compound	ER stress response in the phenotypic assay (in words)	EC50 (wild-type HEK293 cells, 6 h treatment, read-out: EC50, increase in ATF4 in the nucleus) [nM]
CCCCCCCCC(=O)N[C@H]1[C@@H](O[C@@H]2O[C@H](C[C@@H](O)[C@H]3O[C@@H](n4ccc(=O)[nH]c4=O)[C@H](O)[C@@H]3O)[C@H](O)[C@H](O)[C@H]2NC(=O)CCC)O[C@H](CO)[C@@H](O)[C@@H]1O [Tun-4E,9G]	did not induce any ER stress response	–
CCCCCCCC(=O)N[C@H]1[C@H](O[C@H]2O[C@H](CO)[C@@H](O)[C@H](O)[C@H]2NC(C)=O)O[C@H](C[C@@H](O)[C@H]2O[C@@H](n3ccc(=O)[nH]c3=O)[C@H](O)[C@@H]2O)[C@H](O)[C@@H]1O [Tun-8E,2G]	did not induce ER stress	–
CCCCCCCCC(=O)N[C@H]1[C@H](O[C@H]2O[C@H](CO)[C@@H](O)[C@H](O)[C@H]2NC(=O)CCCCCCCC)O[C@H](C[C@@H](O)[C@H]2O[C@@H](n3ccc(=O)[nH]c3=O)[C@H](O)[C@@H]2O)[C@H](O)[C@@H]1O [Tun-9E,9G]	did not induce any ER stress response	–
CCCCCCCCC(=O)N[C@H]1[C@H](O[C@H]2O[C@H](CO)[C@@H](O)[C@H](O)[C@H]2NC(=O)CC(C)C)O[C@H](C[C@@H](O)[C@H]2O[C@@H](n3ccc(=O)[nH]c3=O)[C@H](O)[C@@H]2O)[C@H](O)[C@@H]1O [Tun-9E,i5G]	did not induce ER stress	–
tunicamycin [reference compound]	clear ER stress response	44 ± 3.2
